Test results reported in US4861774A, “Method of treating tumors using tetracyclo compounds” (priority 1984, dated 1989).

Assays:
AMC60 Fibrosarcoma = test: in vivo rat ascitic tumor model, AMC60 Fibrosarcoma (Test 8); set-up: species or system rats (ACI/N); conditions: 3.2 mg/kg i.p., days 1, 5 and 9; median survival time
Description: AMC60 Fibrosarcoma (1×10^6 cells), maintained i.p. by serial passage in female ACI/N rats, was implanted i.p. to female ACI/N rats on day 0, and the test compounds or vehicle were given i.p. to the rats once a day on days 1, 5 and 9. Seven rats were used for each test group or vehicle-treated control group.
Drug efficacy against the ascitic tumors is expressed as percentage of the median survival time of the test group to that of the control group. [formula]

Human LX-1 lung = Human LX-1 lung tumor in nude mice (Test 9); assay type: in vivo, human (in BALB/c nu/nu mice); conditions: 18.0 mg/kg i.v., days 12, 16 & 20; evaluation day 28
Procedure: (§1) Human LX-1 lung or MX-1 mammary (each fragment, 2×2×2 mm), maintained s.c. by serial passage in male BALB/c nu/nu mice, was implanted s.c. to male BALB/c nu/nu mice on day 0, and the test compounds or vehicle were given i.v. to the mice once a day on specified days in Table 9.
(§2) Tumor weight was calculated as follows: (Tumor length and width were measured by caliper.)
(§3) Tumor weight (mg)=1/2×a×b^2, where a represents length and b represents width (mm).
(§4) Tumor weights (initial) and (last) were calculated on the first injection day (just before dosing) and on day 21, 27 or 28 (the last evaluation day), respectively.
(§5) Five mice were used for each test group and 5 or 10 mice were used for each vehicle-treated control group.
(§6) Drug efficacy was expressed as percentage of mean tumor weight of the test group to that of the control group. [formula]

Human MX-1 mammary = Human MX-1 mammary tumor in nude mice (Test 9); assay type: in vivo, human (in BALB/c nu/nu mice); conditions: 10.0 mg/kg i.v., days 11, 15 & 19; evaluation day 27
Procedure: as §1, §2, §3, §4, §5, §6

[1] = Acute toxicity in ddY mice (Test 3); conditions: mouse, in vivo

Question: Which results are given for `NC(=O)OCC1c2c(O)cc(C=O)cc2N2CC3NC3C1(O)O2` (centres unmarked) [FR-900482 substance, 4-Formyl-6,9-dihydroxy-14-oxa-1,11-diazatetracyclo[7.4.1.0^2,7.0^10,12]tetradeca-2,4,6-trien-8-ylmethyl carbamate]?
Answer: T/C (AMC60 Fibrosarcoma): > 333%; 1-T"/C" (Human LX-1 lung): 97%; 1-T"/C" (Human MX-1 mammary): 100%; LD50 ([1]; ip, intraperitoneal injection): 32 mg/kg; LD50 ([1]; intravenous injection): 32 mg/kg
